Measured values from US8183351B2, “Avermectin derivatives” (Bayer Cropscience AG, priority 2006, dated 2012).

Tested on: larvae of the mustard beetle (Phaedon cochleariae)
Test: Phaedon test (PHAECO spray treatment)
Type: in vivo
Conditions: Example D; 4 ppm active compound; sprayed Chinese cabbage discs
Experimental: Phaedon Test (PHAECO Spray Treatment)
• Solvents: 78 parts by weight of acetone • 1.5 parts by weight of dimethylformamide • Emulsifier: 0.5 part by weight of alkylaryl polyglyycol ether
After the desired period of time, the effect in % is determined. 100% means that all beetle larvae have been killed; 0% means that none of the beetle larvae have been killed.

SMILES	Kill rate in % after 7 days [%]
CC[C@H](C)[C@H]1OC2(C=C[C@@H]1C)C[C@@H]1C[C@@H](C/C=C(\C)[C@@H](OC3CC(OC)C(OC(=O)Cn4ccnn4)C(C)O3)[C@@H](C)/C=C/C=C3\CO[C@@H]4[C@H](O)C(C)=CC(C(=O)O1)[C@]34O)O2 (stereo partly drawn) [Example 3]	80

Same assay, conditions: Example G; 4 ppm active compound; sprayed Chinese cabbage discs

SMILES	Kill rate in % after 7 days [%]
CC[C@H](C)[C@H]1OC2(C=C[C@@H]1C)C[C@@H]1C[C@@H](C/C=C(\C)[C@@H](OC3CC(OC)C(OC(=O)CN4CCN(C(=O)OC(C)(C)C)CC4)C(C)O3)[C@@H](C)/C=C/C=C3\CO[C@@H]4[C@H](O)C(C)=CC(C(=O)O1)[C@]34O)O2 (stereo partly drawn) [Example 53, 4′-O-{[4-(tert-Butoxycarbonyl)piperazin-1-yl]acetyl}-avermectin B1 monosaccharide]	100
CC[C@H](C)[C@H]1OC2(C=C[C@@H]1C)C[C@@H]1C[C@@H](C/C=C(\C)[C@@H](OC3CC(OC)C(OC(=O)Cc4c(C)noc4C)C(C)O3)[C@@H](C)/C=C/C=C3\CO[C@@H]4[C@H](O)C(C)=CC(C(=O)O1)[C@]34O)O2 (stereo partly drawn) [Example 43]	100
CC[C@H](C)[C@H]1OC2(C=C[C@@H]1C)C[C@@H]1C[C@@H](C/C=C(\C)[C@@H](OC3CC(OC)C(OC(=O)Cn4nc(C(F)(F)F)cc4OC)C(C)O3)[C@@H](C)/C=C/C=C3\CO[C@@H]4[C@H](O)C(C)=CC(C(=O)O1)[C@]34O)O2 (stereo partly drawn) [Example 41]	83
CC[C@H](C)[C@H]1OC2(C=C[C@@H]1C)C[C@@H]1C[C@@H](C/C=C(\C)[C@@H](OC3CC(OC)C(OC(=O)C(C)n4ccnn4)C(C)O3)[C@@H](C)/C=C/C=C3\CO[C@@H]4[C@H](O)C(C)=CC(C(=O)O1)[C@]34O)O2 (stereo partly drawn) [Example 61]	100
CC[C@H](C)[C@H]1OC2(C=C[C@@H]1C)C[C@@H]1C[C@@H](C/C=C(\C)[C@@H](OC3CC(OC)C(OC(=O)CN4CCNCC4)C(C)O3)[C@@H](C)/C=C/C=C3\CO[C@@H]4[C@H](O)C(C)=CC(C(=O)O1)[C@]34O)O2 (stereo partly drawn) [Example 101, 4′-O-(piperazin-1-ylacetyl)-avermectin B1 monosaccharide]	100
CC[C@H](C)[C@H]1OC2(C=C[C@@H]1C)C[C@@H]1C[C@@H](C/C=C(\C)[C@@H](OC3CC(OC)C(OC(=O)Cn4nc(OC)n(C)c4=O)C(C)O3)[C@@H](C)/C=C/C=C3\CO[C@@H]4[C@H](O)C(C)=CC(C(=O)O1)[C@]34O)O2 (stereo partly drawn) [Example 64]	100
CC[C@H](C)[C@H]1OC2(C=C[C@@H]1C)C[C@@H]1C[C@@H](C/C=C(\C)[C@@H](OC3CC(OC)C(OC(=O)C4CC4(Cl)Cl)C(C)O3)[C@@H](C)/C=C/C=C3\CO[C@@H]4[C@H](O)C(C)=CC(C(=O)O1)[C@]34O)O2 (stereo partly drawn) [Example 37]	100
CCC(C)C1OC2(C=CC1C)CC1CC(CC=C(C)C(OC3CC(OC)C(OC(=O)C(C)N4CCN(C(=O)OC(C)(C)C)CC4)C(C)O3)C(C)C=CC=C3COC4C(O)C(C)=CC(C(=O)O1)C34O)O2 (mixture of isomers) [Example 77]	100
CC[C@H](C)[C@H]1OC2(C=C[C@@H]1C)C[C@@H]1C[C@@H](C/C=C(\C)[C@@H](OC3CC(OC)C(OC(=O)C(C)n4cccn4)C(C)O3)[C@@H](C)/C=C/C=C3\CO[C@@H]4[C@H](O)C(C)=CC(C(=O)O1)[C@]34O)O2 (stereo partly drawn) [Example 62]	100
CC[C@H](C)[C@H]1OC2(C=C[C@@H]1C)C[C@@H]1C[C@@H](C/C=C(\C)[C@@H](OC3CC(OC)C(OC(=O)Cc4ccccn4)C(C)O3)[C@@H](C)/C=C/C=C3\CO[C@@H]4[C@H](O)C(C)=CC(C(=O)O1)[C@]34O)O2 (stereo partly drawn) [Example 65]	100
CC[C@H](C)[C@H]1OC2(C=C[C@@H]1C)C[C@@H]1C[C@@H](C/C=C(\C)[C@@H](OC3CC(OC)C(OC(=O)Cn4nc(C)n(C)c4=O)C(C)O3)[C@@H](C)/C=C/C=C3\CO[C@@H]4[C@H](O)C(C)=CC(C(=O)O1)[C@]34O)O2 (stereo partly drawn) [Example 63]	100
CC[C@H](C)[C@H]1OC2(C=C[C@@H]1C)C[C@@H]1C[C@@H](C/C=C(\C)[C@@H](OC3CC(OC)C(OC(=O)C(C)n4ccnn4)C(C)O3)[C@@H](C)/C=C/C=C3\CO[C@@H]4[C@H](O)C(C)=CC(C(=O)O1)[C@]34O)O2 (stereo partly drawn) [Example 56]	100
CC[C@H](C)[C@H]1OC2(C=C[C@@H]1C)C[C@@H]1C[C@@H](C/C=C(\C)[C@@H](OC3CC(OC)C(OC(=O)CN4CCOCC4)C(C)O3)[C@@H](C)/C=C/C=C3\CO[C@@H]4[C@H](O)C(C)=CC(C(=O)O1)[C@]34O)O2 (stereo partly drawn) [Example 79]	100
CC[C@H](C)[C@H]1OC2(C=C[C@@H]1C)C[C@@H]1C[C@@H](C/C=C(\C)[C@@H](OC3CC(OC)C(OC(=O)CC4CCCO4)C(C)O3)[C@@H](C)/C=C/C=C3\CO[C@@H]4[C@H](O)C(C)=CC(C(=O)O1)[C@]34O)O2 (stereo partly drawn) [Example 31]	100
CC[C@H](C)[C@H]1OC2(C=C[C@@H]1C)C[C@@H]1C[C@@H](C/C=C(\C)[C@@H](OC3CC(OC)C(OC(=O)CNC)C(C)O3)[C@@H](C)/C=C/C=C3\CO[C@@H]4[C@H](O)C(C)=CC(C(=O)O1)[C@]34O)O2 (stereo partly drawn) [Example 104]	100
CC[C@H](C)[C@H]1OC2(C=C[C@@H]1C)C[C@@H]1C[C@@H](C/C=C(\C)[C@@H](OC3CC(OC)C(OC(=O)CN4CCC(NC(=O)OC(C)(C)C)CC4)C(C)O3)[C@@H](C)/C=C/C=C3\CO[C@@H]4[C@H](O)C(C)=CC(C(=O)O1)[C@]34O)O2 (stereo partly drawn) [Example 51]	100
CC[C@H](C)[C@H]1OC2(C=C[C@@H]1C)C[C@@H]1C[C@@H](C/C=C(\C)[C@@H](OC3CC(OC)C(OC(=O)Cn4c(C)ccc4C)C(C)O3)[C@@H](C)/C=C/C=C3\CO[C@@H]4[C@H](O)C(C)=CC(C(=O)O1)[C@]34O)O2 (stereo partly drawn) [Example 44]	100
CC[C@H](C)[C@H]1OC2(C=C[C@@H]1C)C[C@@H]1C[C@@H](C/C=C(\C)[C@@H](OC3CC(OC)C(OC(=O)C(C)n4ccnc4)C(C)O3)[C@@H](C)/C=C/C=C3\CO[C@@H]4[C@H](O)C(C)=CC(C(=O)O1)[C@]34O)O2 (stereo partly drawn) [Example 58]	100
CC[C@H](C)[C@H]1OC2(CC[C@@H]1C)C[C@@H]1C[C@@H](C/C=C(\C)[C@@H](OC3CC(OC)C(OC(=O)Cn4cccn4)C(C)O3)[C@@H](C)/C=C/C=C3\CO[C@@H]4[C@H](O)C(C)=CC(C(=O)O1)[C@]34O)O2 (stereo partly drawn) [Example 22]	100

Tested on: caterpillars of the army worm (Spodoptera frugiperda)
Test: Spodoptera frugiperda test (SPODFR spray treatment)
Type: in vivo
Conditions: Example I; 4 ppm active compound; sprayed maize leaf discs
Experimental: Spodoptera frugiperda Test (SPODFR Spray Treatment)
• Solvents: 78.0 parts by weight of acetone • 1.5 parts by weight of dimethylformamide • Emulsifier: 0.5 part by weight of alkylaryl polyglyycol ether
After the desired period of time, the effect in % is determined. 100% means that all caterpillars have been killed; 0% means that none of the caterpillars have been killed.

SMILES	Kill rate in % after 5 days [%]
CC[C@H](C)[C@H]1OC2(C=C[C@@H]1C)C[C@@H]1C[C@@H](C/C=C(\C)[C@@H](OC3CC(OC)C(OC(=O)COC)C(C)O3)[C@@H](C)/C=C/C=C3\CO[C@@H]4[C@H](O)C(C)=CC(C(=O)O1)[C@]34O)O2 (stereo partly drawn) [Example 30]	100
CC[C@H](C)[C@H]1O[C@]2(C=C[C@@H]1C)C[C@@H]1C[C@@H](C/C=C(\C)[C@@H](O[C@H]3C[C@H](OC)[C@@H](OC(=O)c4ccc(Cl)cc4)[C@H](C)O3)[C@@H](C)/C=C/C=C3\CO[C@@H]4[C@H](O)C(C)=C[C@@H](C(=O)O1)[C@]34O)O2 [4′-O-(4-chlorobenzoyl)-4′-O-de(2,6-dideoxy-3-O-methyl-α-L-arabino-hexopyranosyl)-5-O-demethyl-avermectin A1a, reference compound]	0
CC[C@H](C)[C@H]1OC2(C=C[C@@H]1C)C[C@@H]1C[C@@H](C/C=C(\C)[C@@H](OC3CC(OC)C(OC(=O)Cc4nc(C)sc4C)C(C)O3)[C@@H](C)/C=C/C=C3\CO[C@@H]4[C@H](O)C(C)=CC(C(=O)O1)[C@]34O)O2 (stereo partly drawn) [Example 47]	100
CC[C@H](C)[C@H]1OC2(C=C[C@@H]1C)C[C@@H]1C[C@@H](C/C=C(\C)[C@@H](OC3CC(OC)C(OC(=O)Cc4csc(-c5ccncc5)n4)C(C)O3)[C@@H](C)/C=C/C=C3\CO[C@@H]4[C@H](O)C(C)=CC(C(=O)O1)[C@]34O)O2 (stereo partly drawn) [Example 46]	100
CC[C@H](C)[C@H]1OC2(C=C[C@@H]1C)C[C@@H]1C[C@@H](C/C=C(\C)[C@@H](OC3CC(OC)C(OC(=O)CCn4ccnc4)C(C)O3)[C@@H](C)/C=C/C=C3\CO[C@@H]4[C@H](O)C(C)=CC(C(=O)O1)[C@]34O)O2 (stereo partly drawn) [Example 86]	100
CC[C@H](C)[C@H]1OC2(C=C[C@@H]1C)C[C@@H]1C[C@@H](C/C=C(\C)[C@@H](OC3CC(OC)C(OC(=O)c4ccc(OC(F)(F)F)cc4)C(C)O3)[C@@H](C)/C=C/C=C3\CO[C@@H]4[C@H](O)C(C)=CC(C(=O)O1)[C@]34O)O2 (stereo partly drawn) [Example 97]	33
CC[C@H](C)[C@H]1OC2(C=C[C@@H]1C)C[C@@H]1C[C@@H](C/C=C(\C)[C@@H](OC3CC(OC)C(OC(=O)COc4ccc(Cl)cc4)C(C)O3)[C@@H](C)/C=C/C=C3\CO[C@@H]4[C@H](O)C(C)=CC(C(=O)O1)[C@]34O)O2 (stereo partly drawn) [Example 39]	100
CC[C@H](C)[C@H]1OC2(C=C[C@@H]1C)C[C@@H]1C[C@@H](C/C=C(\C)[C@@H](OC3CC(OC)C(OC(=O)c4ccc(F)cc4)C(C)O3)[C@@H](C)/C=C/C=C3\CO[C@@H]4[C@H](O)C(C)=CC(C(=O)O1)[C@]34O)O2 (stereo partly drawn) [Example 99]	100
CC[C@H](C)[C@H]1OC2(C=C[C@@H]1C)C[C@@H]1C[C@@H](C/C=C(\C)[C@@H](OC3CC(OC)C(OC(=O)Cn4ccnc4)C(C)O3)[C@@H](C)/C=C/C=C3\CO[C@@H]4[C@H](O)C(C)=CC(C(=O)O1)[C@]34O)O2 (stereo partly drawn) [Example 49]	100
CC[C@H](C)[C@H]1OC2(C=C[C@@H]1C)C[C@@H]1C[C@@H](C/C=C(\C)[C@@H](OC3CC(OC)C(OC(=O)C4CCC(=O)N4)C(C)O3)[C@@H](C)/C=C/C=C3\CO[C@@H]4[C@H](O)C(C)=CC(C(=O)O1)[C@]34O)O2 (stereo partly drawn) [Example 38]	100
